Data reported in patent publication US10517889B2, “Modulators of SMAD7 expression” (Ionis Pharmaceuticals, Inc., priority 2017, dated 2019).
Strand notation (5' to 3'): a small letter for the sugar, then the base; units joined by * are phosphorothioate-linked, units joined directly phosphodiester-linked; [ ] holds rarer units or linkages, { } end groups; capitals alone tell only the bases. k = constrained ethyl (cEt); [5mC] = 5-methylcytosine; d = 2'-deoxy (DNA)

test system: human SMAD7 mRNA; assay: Antisense inhibition of human SMAD7 mRNA expression in Hep3B cells by 3-10-3 cEt gapmers, 10,000 nM, electroporation (Example 2); assay type: cell-based; settings: Hep3B cells, 10,000 nM antisense oligonucleotide, electroporation, approximately 24 hours, RT-PCR primer probe set RTS5062, relative to untreated control cells
Procedure: Antisense oligonucleotides were designed to target human SMAD7 mRNA and were tested for their effects on SMAD7 mRNA expression in vitro. The antisense oligonucleotides were tested in a series of experiments that had similar culture conditions, as described below. ION 771576, described in the studies above and which is a 5-10-5 MOE gapmer, was also included in these assays. Cultured Hep3B cells at a density of 20,000 cells per well were transfected using electroporation with 10,000 nM antisense oligonucleotide. After a treatment period of approximately 24 hours, RNA was isolated from the cells and SMAD7 mRNA levels were measured by quantitative real-time PCR. Primer probe set RTS5062 was used to measure human SMAD7 mRNA levels. SMAD7 mRNA levels were adjusted according to total RNA content, as measured by RIBOGREEN®. Results are presented as percent inhibition of SMAD7 mRNA expression, relative to untreated control cells.
The newly designed chimeric antisense oligonucleotides in the Tables below were designed as 3-10-3 cEt gapmers. The gapmers are 16 nucleosides in length, wherein the central gap segment comprises often 2′-deoxynucleosides and is flanked by wing segments on the 5′ direction and the 3′ direction comprising three nucleosides each. Each nucleoside in the 5′ wing segment and each nucleoside in the 3′ wing segment has a cEt sugar modification. The internucleoside linkages throughout each gapmer are phosphorothioate (P═S) linkages. All cytosine residues throughout each gapmer are 5-methylcytosines.
“Start site” indicates the 5′-most nucleoside to which the gapmer is targeted in the human gene sequence. “Stop site” indicates the 3′-most nucleoside to which the gapmer is targeted human gene sequence. […] Some of the oligonucleotides presented were complementary to SMAD7 mRNA sequences RefSeqNo. NM_001190821.1 (designated herein as SEQ ID NO: 3) or RefSeqNo. NM_001190822.1 (designated herein as SEQ ID NO: 4), and are presented in a separate table shown below.

| Substance | % Inhibition [%] |
| --- | --- |
| 798895 (kT*kG*kT*dA*dG*d[5mC]*dA*d[5mC]*dT*dG*dG*d[5mC]*d[5mC]*k[5mC]*k[5mC]*kA; antisense) [compound 798895] | 53 |
| 798827 (kA*kG*kA*dG*dA*dG*dG*dG*d[5mC]*dT*d[5mC]*d[5mC]*dT*kG*kG*kA; antisense) [compound 798827] | 21 |
| 799914 (antisense k[5mC]*kT*kG*dA*dG*dA*dG*dA*dG*dG*d[5mC]*d[5mC]*dT*k[5mC]*kA*kG) [compound 799914] | 24 |
| 799938 (antisense k[5mC]*kT*k[5mC]*dT*dA*dA*dA*d[5mC]*d[5mC]*dA*dA*d[5mC]*dT*kT*kT*kT) [compound 799938] | 17 |

same assay, conditions: Hep3B cells, electroporation with 10,000 nM antisense oligonucleotide, approximately 24 hours, RTS5062, percent inhibition of SMAD7 mRNA relative to untreated control cells

| Substance | % Inhibition [%] |
| --- | --- |
| 799553 (k[5mC]*k[5mC]*k[5mC]*d[5mC]*dG*d[5mC]*dT*dA*dG*dG*dG*dA*dA*k[5mC]*kA*kA; antisense) [compound 799553] | 46 |
| 799843 (antisense kG*kG*kA*dG*dG*dA*dG*dG*d[5mC]*dA*dA*dA*dT*kT*k[5mC]*kA) [compound 799843] | 42 |
| 799824 (antisense kG*kA*kA*dA*dT*dG*dG*d[5mC]*dT*d[5mC]*d[5mC]*dT*dG*k[5mC]*kA*kA) [compound 799824] | 9 |
| 799823 (antisense kA*k[5mC]*kA*dG*dG*dA*dA*dA*dG*dT*dG*dG*dA*kG*kG*kA) [compound 799823] | 46 |
| 799665 (antisense kG*kA*kT*dG*d[5mC]*d[5mC]*dA*dG*d[5mC]*dA*dA*dG*dG*kA*kT*k[5mC]) [compound 799665] | 57 |

same assay, conditions: Hep3B cells, electroporation with 10,000 nM antisense oligonucleotide, approximately 24 hours, SMAD7 mRNA by RT-PCR (RTS5062), relative to untreated control cells

| Substance | % Inhibition [%] |
| --- | --- |
| 798883 (kT*kA*kA*dA*dG*d[5mC]*d[5mC]*d[5mC]*dG*dT*d[5mC]*d[5mC]*dA*k[5mC]*kG*kG; antisense) [compound 798883] | 0 |
| 799886 (antisense kA*k[5mC]*k[5mC]*dA*dA*dG*d[5mC]*dT*dA*d[5mC]*dT*dT*dT*kT*kG*k[5mC]) [compound 799886] | 25 |
| 799884 (k[5mC]*kT*k[5mC]*d[5mC]*dA*dG*dT*dT*dT*d[5mC]*dT*dA*dG*kA*kG*kG; antisense) [compound 799884] | 0 |
| 830047 (kT*kT*k[5mC]*d[5mC]*dG*dA*dT*dT*dG*dG*d[5mC]*dA*dG*kG*kT*kT; antisense) [compound 830047] | 42 |
| 799949 (antisense kA*k[5mC]*kT*dG*dG*d[5mC]*d[5mC]*dG*dA*dA*dG*dT*dG*k[5mC]*kA*kG) [compound 799949] | 10 |
| 800009 (kT*kG*k[5mC]*dT*d[5mC]*dA*dT*dG*dA*dA*dT*dG*dA*kA*k[5mC]*kA; antisense) [compound 800009] | 51 |
| 790510 (k[5mC]*k[5mC]*k[5mC]*d[5mC]*dT*dG*dA*dG*dG*dT*dA*dG*dA*kT*k[5mC]*kA; antisense) [compound 790510] | 33 |
| 799870 (kA*k[5mC]*k[5mC]*d[5mC]*dA*dG*dA*dA*dG*d[5mC]*dT*dG*d[5mC]*kT*kG*kT; antisense) [compound 799870] | 18 |
| 798667 (kT*kG*kG*d[5mC]*dA*dT*dG*d[5mC]*dG*d[5mC]*d[5mC]*dA*dG*kT*k[5mC]*kT; antisense) [compound 798667] | 21 |
| 800006 (k[5mC]*kA*kA*dG*dG*dA*dA*dT*dT*dT*dT*d[5mC]*d[5mC]*k[5mC]*k[5mC]*kT; antisense) [compound 800006] | 41 |
| 830016 (antisense kG*kG*kT*dG*d[5mC]*d[5mC]*d[5mC]*dA*dA*d[5mC]*d[5mC]*d[5mC]*dT*kT*k[5mC]*kA) [compound 830016] | 32 |
| 798717 (antisense kA*kG*k[5mC]*d[5mC]*d[5mC]*dT*dG*d[5mC]*d[5mC]*d[5mC]*dG*dG*dG*k[5mC]*k[5mC]*kG) [compound 798717] | 18 |
| 830021 (antisense kG*kG*kG*dA*dA*dA*dG*dG*d[5mC]*d[5mC]*d[5mC]*dA*dA*k[5mC]*kA*kG) [compound 830021] | 42 |
| 799256 (antisense k[5mC]*k[5mC]*kA*dA*dA*dA*d[5mC]*dT*d[5mC]*d[5mC]*dA*dA*dA*kG*kG*kT) [compound 799256] | 0 |

same assay, conditions: Hep3B cells, electroporation with 10,000 nM antisense oligonucleotide, approximately 24 hours, primer probe set RTS5062, relative to untreated control cells

| Substance | % inhibition of SMAD7 mRNA expression [%] | % Inhibition [%] |
| --- | --- | --- |
| 798948 (antisense kG*k[5mC]*kG*dA*dA*dA*d[5mC]*dA*dA*dA*dA*d[5mC]*dA*kG*kA*kA) [compound 798948] | 56 | – |
| 799126 (antisense kG*kA*k[5mC]*dA*dT*d[5mC]*d[5mC]*d[5mC]*d[5mC]*dG*d[5mC]*dT*dT*kG*k[5mC]*kT) [compound 799126] | 4 | – |
| 799424 (antisense k[5mC]*kT*k[5mC]*d[5mC]*dA*dA*dA*dG*dG*d[5mC]*dT*dG*d[5mC]*kA*kG*kG) [compound 799424] | 34 | – |
| 799122 (antisense k[5mC]*kT*kG*dG*d[5mC]*d[5mC]*dT*dA*dA*dT*dA*dG*d[5mC]*kA*kG*kA) [compound 799122] | – | 29 |
| 799124 (antisense k[5mC]*k[5mC]*kG*d[5mC]*dT*dT*dG*d[5mC]*dT*dG*dG*d[5mC]*d[5mC]*kT*kA*kA) [compound 799124] | 17 | – |
| 799380 (antisense k[5mC]*kT*k[5mC]*d[5mC]*dT*dA*d[5mC]*dT*dG*dT*dA*dA*dG*kA*kG*kG) [compound 799380] | 1 | – |
| 798984 (antisense kG*k[5mC]*k[5mC]*d[5mC]*d[5mC]*d[5mC]*d[5mC]*dT*dT*d[5mC]*dA*dT*dA*k[5mC]*kA*k[5mC]) [compound 798984] | 64 | – |
| 799326 (kA*k[5mC]*kA*d[5mC]*dT*d[5mC]*dT*d[5mC]*d[5mC]*d[5mC]*dA*dG*dG*kA*kG*kG; antisense) [compound 799326] | 31 | – |
| 799183 (antisense k[5mC]*kT*kT*dT*dG*dT*dA*dG*dT*dT*dA*dG*dA*kA*kA*kA) [compound 799183] | 0 | – |

same assay, conditions: Hep3B cells, electroporation, 10,000 nM antisense oligonucleotide, approximately 24 hours, RTS5062, relative to untreated control cells

| Substance | % inhibition of SMAD7 mRNA expression [%] |
| --- | --- |
| 799281 (antisense k[5mC]*kA*k[5mC]*dA*dG*d[5mC]*dA*d[5mC]*d[5mC]*dT*dT*dG*dT*k[5mC]*kA*k[5mC]) [compound 799281] | 25 |
| 799280 (antisense kA*kG*k[5mC]*dA*d[5mC]*d[5mC]*dT*dT*dG*dT*d[5mC]*dA*d[5mC]*k[5mC]*k[5mC]*kG) [compound 799280] | 44 |
| 799581 (k[5mC]*kA*kA*dA*d[5mC]*d[5mC]*dT*dT*d[5mC]*d[5mC]*dG*dA*dA*kA*kG*kG; antisense) [compound 799581] | 0 |

same assay, conditions: SMAD7 mRNA, Hep3B cells, 10,000 nM antisense oligonucleotide, electroporation, approximately 24 hours, primer probe set RTS5062, relative to untreated control cells

| Substance | % Inhibition [%] |
| --- | --- |
| 829722 (antisense kA*kT*kG*d[5mC]*dG*d[5mC]*d[5mC]*dA*dG*dT*d[5mC]*dT*d[5mC]*k[5mC]*k[5mC]*kG) [compound 829722] | 38 |
| 772582 (k[5mC]*kT*kG*dA*dA*dA*dG*d[5mC]*d[5mC]*d[5mC]*d[5mC]*d[5mC]*d[5mC]*kA*kG*kG; antisense) [compound 772582] | 34 |
| 829770 (antisense k[5mC]*kA*kG*dT*d[5mC]*d[5mC]*dA*dG*dG*d[5mC]*dG*dG*d[5mC]*k[5mC]*kG*kG) [compound 829770] | 42 |

same assay, conditions: SMAD7 mRNA, Hep3B cells, electroporation with 10,000 nM antisense oligonucleotide, approximately 24 hours, primer probe set RTS5062, relative to untreated control cells

| Substance | % Inhibition [%] |
| --- | --- |
| 829977 (kT*kA*kG*d[5mC]*dT*dG*dT*d[5mC]*dA*dG*dA*dT*dA*kA*kA*k[5mC]; antisense) [compound 829977] | 35 |
| 829875 (antisense k[5mC]*kG*kG*dG*dT*dT*dG*dT*d[5mC]*d[5mC]*dA*dG*dT*kG*kT*kG) [compound 829875] | 52 |
| 829874 (antisense kG*kT*kT*dG*dT*d[5mC]*d[5mC]*dA*dG*dT*dG*dT*dG*kG*k[5mC]*kG) [compound 829874] | 43 |
| 829986 (k[5mC]*kG*kA*dG*dG*d[5mC]*dG*dG*dT*dG*dA*dT*dT*kG*k[5mC]*k[5mC]; antisense) [compound 829986] | 28 |
| 829855 (antisense kA*kG*k[5mC]*dT*dG*dA*d[5mC]*dT*d[5mC]*dT*dT*dG*dT*kT*kG*kT) [compound 829855] | 0 |
| 829822 (kT*kG*kT*dT*dT*d[5mC]*dA*dG*d[5mC]*dG*dG*dA*dG*kG*kA*kA; antisense) [compound 829822] | 43 |
